According to article PMC9186412, “Rational Framework for the Design of Trp- and Arg-Rich Peptide Antibiotics Against Multidrug-Resistant Bacteria” (Frontiers in Microbiology, 2022):
Converted amounts (≈) assume the structure as drawn. Where two headings read alike, the source gives them in different places. Where a SMILES comes first, the peptide text is derived from it. Bridges are numbered along the chain shown (N, C = ends). [ ]: non-standard residue; d: D form. The star is where a group is joined. X1 = CC[C@H](C)CCCCC(=O)*; Dab = NCC[C@H](N)C(=O)O

Columns and labels:
P. aeruginosa = assay: microbe, parasite or virus in culture; format: cell-based, Pseudomonas aeruginosa
Procedure: (§1) Bacterial clinical isolates, used for initial screening and in previous studies ([Deslouches et al., 2013]; [Lin et al., 2018]), were anonymously provided by the clinical microbiology laboratory of the University of Pittsburgh medical Center. The panel used for secondary screening was from [CDC (2013)] (Supplementary Table 3), with resistance profiles data. Bacteria are stored in lock-secured –80°C freezer and typically retrieved by obtaining single colonies on agar plates prior for subsequent liquid broth cultures. Suspensions of test bacteria were prepared from log phase of growth by diluting overnight cultures at 1:100 with fresh cation-adjusted MHB (MHB2, Millipore Sigma, United States) and incubating for additional 3–4 h. Bacteria were spun at 3,000 × g for 10 min and the pellet resuspended in test condition media (Millipore Sigma, United States) to determine bacterial turbidity using a Den-1B densitometer (Grant Instruments, United States) at 0.5 McFarland (unit of bacterial density) corresponding to […].
(§2) To examine antibacterial activity, we used minor modifications of a standard growth inhibition assay endorsed by the Clinical and Laboratory Standards Institute (CLSI), as previously described ([Deslouches et al., 2013]). Bacteria were incubated with each of the indicated peptides in MHB2. The bacterial cells were kept in an incubator for 18 h at 37°C, which is linked to a robotic system that feeds a plate reader every hour with one of 8 × 96-well plates. This set-up allows the collection of growth kinetic data at A 570 (absorbance at 570 nm) to examine growth inhibition in real time (BioTek Instruments, United States). […] The assays are typically repeated a second time. If the MIC is different, a third experimental trial is performed to confirm the MIC. To assess bactericidal properties of the peptide, the assay was modified by using 15% fetal bovine serum (FBS, for a more physiologically relevant test condition) mixed with 25% MHB2 and 60% PBS. Bacterial cells (colony forming unit/mL or CFU/mL) were enumerated after incubating treated bacteria for 3 h and plating serially diluted samples on broth agar medium at 37°C overnight. Minimum bactericidal concentration (MBC) was determined as the peptide concentration at which complete bacterial killing was observed. […] Data were analyzed using GraphPad Prism software.

E. coli = assay: microbe, parasite or virus in culture; format: cell-based, Escherichia coli
Procedure: as §1, §2

CDC AR isolates = system: CDC AR isolates; set-up: key: S (green), susceptible; I (blue), intermediate; R (red), resistant; conditions: data provided by the CDC, ref CDC, cited from earlier work
Source text: Supplement Table_3.XLSX, sheet "CDC AR isolates profiles" | column: G(-) strains

A. baumannii = assay: microbe, parasite or virus in culture; format: cell-based, Acinetobacter baumannii
Procedure: as §1, §2

Enterobacter spp = assay: microbe, parasite or virus in culture; format: cell-based, Enterobacter spp (aerogenes, cloacae)
Procedure: as §1, §2

K. pneumoniae = assay: microbe, parasite or virus in culture; format: cell-based, Klebsiella pneumoniae
Procedure: as §1, §2

SMILES: CC[C@H](C)CCCCC(=O)N[C@@H](CCN)C(=O)N[C@H](C(=O)N[C@@H](CCN)C(=O)N[C@H]1CCNC(=O)[C@H]([C@@H](C)O)NC(=O)[C@H](CCN)NC(=O)[C@H](CCN)NC(=O)[C@H](CC(C)C)NC(=O)[C@@H](CC(C)C)NC(=O)[C@H](CCN)NC1=O)[C@@H](C)O [Colistin, reference compound] (X1-[Dab]T[Dab][Dab][Dab][dL]L[Dab][Dab]T; lactam 4-C (inferred); N-terminus assumed)
- MIC (P. aeruginosa; strain PA01, MHB2, 18 h, 37°C): 0.5 µM (≈ 0.585 µg/mL)
- MIC (P. aeruginosa; strain PA14, MHB2, 18 h, 37°C): 0.25 µM (≈ 0.292 µg/mL)
- MIC (P. aeruginosa; strain PA97-5, UPMC, MHB2, 18 h, 37°C): 0.25 µM (≈ 0.292 µg/mL)
- MIC (P. aeruginosa; strain PA129-5, UPMC, MHB2, 18 h, 37°C): 0.5 µM (≈ 0.585 µg/mL)
- MIC (P. aeruginosa; strain PA216, CDC clinical strain, confirmed by a second or third experimental trial): 0.5 µM (≈ 0.585 µg/mL)
- MIC (P. aeruginosa; strain PA229, CDC clinical strain, confirmed by a second or third experimental trial): >16 µM
- MIC (P. aeruginosa; strain PA230, CDC clinical strain, confirmed by a second or third experimental trial): 0.5 µM (≈ 0.585 µg/mL)
- MIC (P. aeruginosa; strain PA231, CDC clinical strain, confirmed by a second or third experimental trial): 1 µM (≈ 1.17 µg/mL)
- MIC (E. coli; strain Eco541, CDC clinical strain, confirmed by a second or third experimental trial): 1 µM (≈ 1.17 µg/mL)
- MIC (E. coli; strain Eco543, CDC clinical strain, confirmed by a second or third experimental trial): 8 µM (≈ 9.36 µg/mL)
- MIC (E. coli; strain Eco546, CDC clinical strain, confirmed by a second or third experimental trial): 0.25 µM (≈ 0.292 µg/mL)
- MIC (E. coli; strain Eco549, CDC clinical strain, confirmed by a second or third experimental trial): 1 µM (≈ 1.17 µg/mL)
- MIC (E. coli; strain Eco25922, MHB2, 18 h, 37°C): 0.5 µM (≈ 0.585 µg/mL)
- MIC (E. coli; strain YDC107, UPMC, MHB2, 18 h, 37°C): 0.5 µM (≈ 0.585 µg/mL)
- MIC (E. coli; strain YDC337, UPMC, MHB2, 18 h, 37°C): 0.25 µM (≈ 0.292 µg/mL)
- MIC (E. coli; strain YDC748, UPMC, MHB2, 18 h, 37°C): 0.25 µM (≈ 0.292 µg/mL)
- Antibiotic susceptibility profile (CDC AR isolates; Acinetobacter baumannii AB273, CDC AR isolate): S
- Antibiotic susceptibility profile (CDC AR isolates; Acinetobacter baumannii AB274, CDC AR isolate): S
- Antibiotic susceptibility profile (CDC AR isolates; Acinetobacter baumannii AB275, CDC AR isolate): S
- Antibiotic susceptibility profile (CDC AR isolates; Acinetobacter baumannii AB276, CDC AR isolate): S
- Antibiotic susceptibility profile (CDC AR isolates; Enterobacter cloacae E62, CDC AR isolate): S
- Antibiotic susceptibility profile (CDC AR isolates; Enterobacter cloacae E546, CDC AR isolate): R
- Antibiotic susceptibility profile (CDC AR isolates; Klebsiella pneumoniae KP542, CDC AR isolate): I
- Antibiotic susceptibility profile (CDC AR isolates; Klebsiella pneumoniae KP548, CDC AR isolate): R
- Antibiotic susceptibility profile (CDC AR isolates; Klebsiella pneumoniae KP550, CDC AR isolate): R
- Antibiotic susceptibility profile (CDC AR isolates; Klebsiella pneumoniae KP552, CDC AR isolate): R
- Antibiotic susceptibility profile (CDC AR isolates; Pseudomonas aeruginosa PA229, CDC AR isolate): S
- Antibiotic susceptibility profile (CDC AR isolates; Pseudomonas aeruginosa PA230, CDC AR isolate): S
- Antibiotic susceptibility profile (CDC AR isolates; Pseudomonas aeruginosa PA231, CDC AR isolate): S
- Antibiotic susceptibility profile (CDC AR isolates; Pseudomonas aeruginosa PA232, CDC AR isolate): S
- Antibiotic susceptibility profile (CDC AR isolates; Pseudomonas aeruginosa PA239, CDC AR isolate): R
- MIC (A. baumannii; strain AB273, CDC clinical strain, confirmed by a second or third experimental trial): 0.5 µM (≈ 0.585 µg/mL)
- MIC (A. baumannii; strain AB274, CDC clinical strain, confirmed by a second or third experimental trial): 0.25 µM (≈ 0.292 µg/mL)
- MIC (A. baumannii; strain AB275 (first line, r8), CDC clinical strain, confirmed by a second or third experimental trial): 0.25 µM (≈ 0.292 µg/mL)
- MIC (A. baumannii; strain AB275 (second line, r9), CDC clinical strain, confirmed by a second or third experimental trial): 0.5 µM (≈ 0.585 µg/mL)
- MIC (A. baumannii; strain AB-A2, UPMC clinical strain, MHB2, 18 h, 37°C, A570, confirmed by 2nd or 3rd trial): 0.5 µM (≈ 0.585 µg/mL)
- MIC (A. baumannii; strain AB-A3, UPMC, MHB2, 18 h, 37°C): 0.25 µM (≈ 0.292 µg/mL)
- MIC (A. baumannii; strain AB-F8, UPMC, MHB2, 18 h, 37°C): 0.5 µM (≈ 0.585 µg/mL)
- MIC (A. baumannii; strain AB-F9, UPMC, MHB2, 18 h, 37°C): 0.25 µM (≈ 0.292 µg/mL)
- MIC (Enterobacter spp; strain EA62 (aerogenes), CDC clinical strain, confirmed by a second or third experimental trial): 2 µM (≈ 2.34 µg/mL)
- MIC (Enterobacter spp; strain EA518 (aerogenes), UPMC, MHB2, 18 h, 37°C): 0.25 µM (≈ 0.292 µg/mL)
- MIC (Enterobacter spp; strain EA547 (aerogenes), CDC clinical strain, confirmed by a second or third experimental trial): 0.25 µM (≈ 0.292 µg/mL)
- MIC (Enterobacter spp; strain EA596 (aerogenes), UPMC, MHB2, 18 h, 37°C): 0.25 µM (≈ 0.292 µg/mL)
- MIC (Enterobacter spp; strain EC470 (cloacae), UPMC, MHB2, 18 h, 37°C): 0.25 µM (≈ 0.292 µg/mL)
- MIC (Enterobacter spp; strain EC544 (cloacae), CDC clinical strain, confirmed by a second or third experimental trial): 4 µM (≈ 4.68 µg/mL)
- MIC (Enterobacter spp; strain EC545 (cloacae), CDC clinical strain, confirmed by a second or third experimental trial): 2 µM (≈ 2.34 µg/mL)
- MIC (Enterobacter spp; strain EC560 (cloacae), UPMC, MHB2, 18 h, 37°C): 0.25 µM (≈ 0.292 µg/mL)
- MIC (K. pneumoniae; colistin-resistant CDC isolate KP46, MHB2): 4 µM (≈ 4.68 µg/mL)
- MIC (K. pneumoniae; colistin-resistant CDC isolate KP87, MHB2): >16 µM
- MIC (K. pneumoniae; colistin-resistant CDC isolate KP125, MHB2): 8 µM (≈ 9.36 µg/mL)
- MIC (K. pneumoniae; colistin-resistant CDC isolate KP507, MHB2): 16 µM (≈ 18.7 µg/mL)
- MIC (K. pneumoniae; colistin-resistant CDC isolate KP1010, MHB2): 16 µM (≈ 18.7 µg/mL)
- MIC (K. pneumoniae; colistin-resistant CDC isolate KP1041, MHB2): >16 µM
- MIC (K. pneumoniae; colistin-resistant CDC isolate KP1045, MHB2): >16 µM
- MIC (K. pneumoniae; strain KP542, CDC clinical strain, confirmed by a second or third experimental trial): >16 µM
- MIC (K. pneumoniae; strain KP548, CDC clinical strain, confirmed by a second or third experimental trial): 0.25 µM (≈ 0.292 µg/mL)
- MIC (K. pneumoniae; strain KP550, CDC clinical strain, confirmed by a second or third experimental trial): 0.25 µM (≈ 0.292 µg/mL)
- MIC (K. pneumoniae; strain KP552, CDC clinical strain, confirmed by a second or third experimental trial): 0.25 µM (≈ 0.292 µg/mL)
- MIC (K. pneumoniae; strain KPA5 (colistin-resistant), UPMC, MHB2, 18 h, 37°C): >16 µM
- MIC (K. pneumoniae; strain KPB3, UPMC, MHB2, 18 h, 37°C): 0.25 µM (≈ 0.292 µg/mL)
- MIC (K. pneumoniae; strain KPC3, UPMC, MHB2, 18 h, 37°C): 0.25 µM (≈ 0.292 µg/mL)
